Consider 26 compounds from US7268146B2, “Ring fused pyrazole derivatives as CRF antagonists” (Palo Alto LLC, priority 2001, dated 2007).

Where a name gives a salt, the structure may show the parent alone.

For orientation: melting point means the temperature of the solid-liquid transition.

In one series the target is T1, hCRF1 (Homo sapiens, UniProt P34998).
T1 construct: Celll membranes are prepared according the method of Dieterich and DeSouza (1996); endogenous in cells; host or cells: human IMR-32 neuroblastoma cells (membrane preparation)
T1 sequence (P34998 24-415): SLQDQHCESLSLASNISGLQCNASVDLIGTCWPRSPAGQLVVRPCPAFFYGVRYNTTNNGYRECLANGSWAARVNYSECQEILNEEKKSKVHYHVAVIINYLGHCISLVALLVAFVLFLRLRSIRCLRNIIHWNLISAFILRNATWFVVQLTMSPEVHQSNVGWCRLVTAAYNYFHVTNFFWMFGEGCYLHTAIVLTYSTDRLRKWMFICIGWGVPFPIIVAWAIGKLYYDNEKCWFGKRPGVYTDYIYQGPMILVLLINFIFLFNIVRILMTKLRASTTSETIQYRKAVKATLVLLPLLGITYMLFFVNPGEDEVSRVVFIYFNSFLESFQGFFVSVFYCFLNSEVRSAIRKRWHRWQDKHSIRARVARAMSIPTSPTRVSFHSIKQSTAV
As to the kind of experiment: CRF Receptor Binding Assay. The following applies: CRF1 receptor binding affinity (table title); read-out: hCRF1 (pIC50) (converted). How it is done:
Human IMR-32 neuroblastoma cells are grown to 80% confluence in MEM medium containing 10% heat-inactivated FBS, 1 mM Sodium Pyruvate, and 0.1 mM nonessential amino acids. Celll membranes are prepared according the method of Dieterich and DeSouza (1996). The cells (˜5E+9) are resuspended in 10 volumes of wash buffer (5 mM Tris HCl, 10 mM MgCl2, 2 mM EGTA, pH 7.4 at RT), homogenized with a Polytron, and then centrifuged at 45,000 G for 20 min at 4° C. The membrane pellets are washed twice with wash buffer (45,000 G for 20 min at 4° C.) and then resuspended (50 mM Tris HCl, 10 mM MgCl2, 2 mM EGTA, pH 7.4 at RT). Protein concentration is determined using Pierce reagents and BSA as standard. Aliquots of 1-1.5 ml are stored at −80° C. until binding assay.
The competition binding assay is performed in a final volume of 250 μl, which contains assay buffer (50 mM Tris-HCl, 10 mM MgCl2, 2 mM EGTA, 0.2% BSA, 0.1 mM bacitracin and 100 kIU/ml aprotinin pH 7.2 at R.T.), 0.05 nM [^125I]Tyr^0-ovine CRF (Du Pont New England Nuclear), 50 μg of membrane protein, and test compound at various concentrations. Non-specific binding is determined with 1 uM hCRF. Binding reactions are terminated after 2 hr incubation at 25° C. by filtering through 96-w GF/C filter plate using a Packard Harvester (Filtermate 196). The 96-w filter plate is pre-treated with 0.3% polyethyleneimine and pre-washed with washing buffer (50 mM Tris-HCl, 10 mM MgCl2, 2 mM EGTA, 0.2% BSA, pH 7.2 at 4° C.). Unbound radioactivity is removed by four rapid washes (0.8 ml/well) with wash buffer. The radioactivity is quantified using a Packard TopCount. Data are analyzed using non-linear iterative curve fitting to obtain IC50 and Hill slope values. PKi values are derived from pIC50 values (−log of IC50).
As for `Cc1cc(C)c(N2CCCc3c2nn(C)c3Br)c(Cl)c1` [Example 1, 3-Bromo-7-(2-chloro-4,6-dimethylphenyl)-2-methyl-4,5,6,7-tetrahydro-2H-pyrazolo[3,4-b]pyridine], the IC50 was 1070 nM. For the compound `CCCC(O)(c1cccs1)c1c2c(nn1C)N(c1c(C)cc(C)cc1C)CCC2` (stereo not shown) [Example 5c, 1-[2-Methyl-7-(2,4,6-trimethylphenyl)-4,5,6,7-tetrahydro-2H-pyrazolo[3,4-b]pyridin-3-yl]-1-thiophen-2-ylbutan-1-ol], the IC50 was 11200 nM. Still for that read-out and setting: for `CC/C=C(\CCC)c1c2c(nn1C)N(c1ccc(Cl)cc1Cl)CCC2` [Example 6e, 7-(2,4-Dichlorophenyl)-2-methyl-3-(1-propylbut-1-enyl)-4,5,6,7-tetrahydro-2H-pyrazolo[3,4-b]pyridine] the value was 234 nM; for `CCCN(Cc1ccco1)c1c2c(nn1C)N(c1c(C)cc(C)cc1Cl)CCC2` [Example 9c, [7-(2-Chloro-4,6-dimethyl-phenyl)-2-methyl-4,5,6,7-tetrahydro-2H-pyrazolo[3,4-b]pyridin-3-yl]-furan-2-ylmethyl-propyl-aminetrifluoroacetic acid salt], 832 nM. Turning to `Cc1cc(C)c(N2CCCc3c2nn(C)c3CN2CCc3ccccc3C2)c(C)c1` [Example 11, 2-[2-Methyl-7-(2,4,6-trimethyl-phenyl)-4,5,6,7-tetrahydro-2H-pyrazolo[3,4-b]pyridin-3-ylmethyl]-1,2,3,4-tetrahydroisoquinolinedihydrochloride], the IC50 was 12000 nM. On the same count and under the same terms, as for `CCCC(CCC)Oc1c2c(nn1C)N(c1ccc(Cl)cc1Cl)CCC2` [Example 12b, 7-(2,4-Dichlorophenyl)-2-methyl-3-(1-propylbutoxy)-4,5,6,7-tetrahydro-2H-pyrazolo[3,4-b]pyridinehydrochloride], the figure is 27.5 nM.

Tested on in the next series: not given
Test: not given
Settings: not given
`Cc1cc(C)c(N2CCCc3c2nn(C)c3Br)c(Cl)c1` [Example 1, 3-Bromo-7-(2-chloro-4,6-dimethylphenyl)-2-methyl-4,5,6,7-tetrahydro-2H-pyrazolo[3,4-b]pyridine] registered a melting point of 106 to 107 °C. The same measure, in the same setting: for `CCCC(O)(c1cccs1)c1c2c(nn1C)N(c1c(C)cc(C)cc1C)CCC2` (stereo not shown) [Example 5c, 1-[2-Methyl-7-(2,4,6-trimethylphenyl)-4,5,6,7-tetrahydro-2H-pyrazolo[3,4-b]pyridin-3-yl]-1-thiophen-2-ylbutan-1-ol] the value was 175.9 to 178.4 °C; for `Cc1cc(C)c(N2CCCc3cn(C)nc32)c(Cl)c1` [Example 5m, 7-(2-Chloro-4,6-dimethylphenyl)-2-methyl-4,5,6,7-tetrahydro-2H-pyrazolo[3,4-b]pyridine], 97 to 98 °C; for `CC/C=C(\CCC)c1c2c(nn1C)N(c1c(C)cc(C)cc1Cl)CCC2` [Example 6a, 7-(2-Chloro-4,6-dimethylphenyl)-2-methyl-3-(1-propylbut-1-enyl)-4,5,6,7-tetrahydro-2H-pyrazolo[3,4-b]pyridine], 86.7 to 88.2 °C. In the case of `CC/C=C(\CCC)c1c2c(nn1C)N(c1c(C)cc(C)cc1C)CCC2` [Example 6b, 2-Methyl-3-(1-propylbut-1-enyl)-7-(2,4,6-trimethylphenyl)-4,5,6,7-tetrahydro-2H-pyrazolo[3,4-b]pyridine], the melting point fell in the range of 101.6 to 102.6 °C. In the case of `CC/C=C(\CCC)c1c2c(nn1C)N(c1c(C)cc(C)cc1C)CCCC2` [Example 6d, 2-Methyl-3-(1-propylbut-1-enyl)-8-(2,4,6-trimethylphenyl)-2,4,5,6,7,8-hexahydro-1,2,8-triazaazulene], the melting point fell in the range of 101.9 to 103.9 °C.

Compound `CCCC(c1cccs1)c1c2c(nn1C)N(c1c(C)cc(C)cc1C)CCC2` (stereo not shown) [Example 7c, 2-Methyl-3-(1-thiophen-2-ylbutyl)-7-(2,4,6-trimethylphenyl)-4,5,6,7-tetrahydro-2H-pyrazolo[3,4-b]pyridine] gave a melting point of 87.6 to 90.3 °C. `CCCC(CCC)c1c2c(nn1C)N(c1c(C)cc(C)cc1C)CCCC2` [Example 7d, 2-Methyl-3-(1-propylbutyl)-8-(2,4,6-trimethylphenyl)-2,4,5,6,7,8-hexahydro-1,2,8-triazaazulene] displayed a melting point of 96 to 98.1 °C. The compound `Cc1cc(C)c(N2CCCc3c2nn(C)c3C(=O)O)c(Cl)c1` [Example 8a, 7-(2-Chloro-4,6-dimethylphenyl)-2-methyl-4,5,6,7-tetrahydro-2H-pyrazolo[3,4-b]pyridine-3-carboxylic acid] came in with a melting point of 247.8 to 248.3 °C. On the same count and under the same terms, for `Cc1cc(C)c(N2CCCc3c2nn(C)c3C(=O)O)c(C)c1` [Example 8b, 7-(2,4,6-Trimethylphenyl)-2-methyl-4,5,6,7-tetrahydro-2H-pyrazolo[3,4-b]pyridine-3-carboxylic acid] the value was 228.6 to 233.9 °C. The same measure, in the same setting: for `Cc1cc(C)c(N2CCCc3c2nn(C)c3NC(=O)OC(C)(C)C)c(Cl)c1` [Example 8c, [7-(2-Chloro-4,6-dimethylphenyl)-2-methyl-4,5,6,7-tetrahydro-2H-pyrazolo[3,4-b]pyridin-3-yl]carbamic acid tert-butyl ester] the value was 171.4 to 175.7 °C; for `CCOC(=O)Nc1c2c(nn1C)N(c1c(C)cc(C)cc1Cl)CCC2` [Example 8d, [7-(2-Chloro-4,6-dimethylphenyl)-2-methyl-4,5,6,7-tetrahydro-2H-pyrazolo[3,4-b]pyridin-3-yl]carbamic acid ethyl ester], 204 to 207.8 °C. On the same count and under the same terms, for `CCCN(CCC)c1c2c(nn1C)N(c1c(C)cc(C)cc1Cl)CCC2` [Example 9a, [7-(2-Chloro-4,6-dimethylphenyl)-2-methyl-4,5,6,7-tetrahydro-2H-pyrazolo[3,4-b]pyridin-3-yl]dipropylamine] the value was 90 to 91 °C; for `CCCN(CCC)c1c2c(nn1C)N(c1c(C)cc(C)cc1C)CCC2` [Example 9ae, [2-Methyl-7-(2,4,6-trimethylphenyl)-4,5,6,7-tetrahydro-2H-pyrazoio[3,4-b]pyridin-3-yl]-dipropylamine], 88.9 to 91.5 °C; for `CCC(CC)Nc1c2c(nn1C)N(c1c(C)cc(C)cc1C)CCC2` [Example 9af, (1-Ethylpropyl)-[2-methyl-7-(2,4,6-trimethyl-phenyl)-4,5,6,7-tetrahydro-2H-pyrazolo[3,4-b]pyridin-3-yl]-amine], 99.3 to 104.9 °C. Compound `CCC(COC)Nc1c2c(nn1C)N(c1c(C)cc(C)cc1C)CCC2` (stereo not shown) [Example 9aj, (1-Methoxymethylpropyl)-[2-methyl-7-(2,4,6-trimethylphenyl)-4,5,6,7-tetrahydro-2H-pyrazolo[3,4-b]pyridin-3-yl]-amine] gave a melting point of 96.5 to 102.5 °C. Same read-out and setting: for `CCCC(COC)Nc1c2c(nn1C)N(c1c(C)cc(C)cc1C)CCC2` (stereo not shown) [Example 9ak, (1-Methoxymethylbutyl)-[2-methyl-7-(2,4,6-trimethylphenyl)-4,5,6,7-tetrahydro-2H-pyrazolo[3,4-b]pyridin-3-yl]-amine] the value was 100.1 to 104.4 °C. `CCCN(CC1CC1)C(=O)c1c2c(nn1C)N(c1c(C)cc(C)cc1Cl)CCC2` [Example 10a, 7-(2-Chloro-4,6-dimethylphenyl)-2-methyl-4,5,6,7-tetrahydro-2H-pyrazolo[3,4-b]pyridine-3-carboxylic acidcyclopropylmethylpropylamide]: the melting point was in the range of 120.6 to 122 °C. `Cc1cc(C)c(N2CCCc3c2nn(C)c3C(=O)N2CCc3ccccc3C2)c(C)c1` [Example 10b, (3,4-Dihydro-1H-isoquinolin-2-yl)-[2-methyl-7-(2,4,6-trimethyl-phenyl)-4,5,6,7-tetrahydro-2H-pyrazolo[3,4-b]pyridin-3-yl]-methanone] yielded a melting point of 80.3 to 87.7 °C.

In turn, `CCC(=O)Nc1c2c(nn1C)N(c1c(C)cc(C)cc1C)CCC2` [Example 10c, N-[2-Methyl-7-(2,4,6-trimethylphenyl)-4,5,6,7-tetrahydro-2H-pyrazolo[3,4-b]pyridin-3-yl]propionamide] registered a melting point of 226 to 228 °C. The same measure, in the same setting: for `COCC(=O)Nc1c2c(nn1C)N(c1c(C)cc(C)cc1C)CCC2` [Example 10d, 2-Methoxy-N-[2-methyl-7-(2,4,6-trimethyl-phenyl)-4,5,6,7-tetrahydro-2H-pyrazolo[3,4-b]pyridin-3-yl]acetamide] the value was 133.8 to 135 °C. On the same count and under the same terms, for `COc1cccc(OC)c1-c1c2c(nn1C)N(c1c(C)cc(C)cc1C)CCC2` [Example 13b, 3-(2,6-Dimethoxyphenyl)-2-methyl-7-(2,4,6-trimethylphenyl)-4,5,6,7-tetrahydro-2H-pyrazolo[3,4-b]pyridine] the value was 169.9 to 172.8 °C.
